What was measured:
[1] = test system: Draining Lymph Nodes (LNs) From the Normal Breast Tissue; test: Dynamic micro-MR mammo-lymphangiography of lymphatic drainage from the normal mammary gland; type: in vivo, mice (Balb/c, athymic nu/nu)
Procedure: (§1) Mice were anesthetized with 1.15 mg sodium pentobarbital (Dainabot, Osaka, Japan), and then injected with 0.15-0.24 μmol Gd/5-8 μL of the PAMAM-G6 contrast agent into normal mammary glands or mammary tissue surrounding a tumor (peritumorally). Dynamic micro-MR images were obtained using a 1.5-Tesla superconductive magnet unit (Signa LX, General Electric Medical System, Milwaukee, Wis.) with a birdcage type coil of 3 cm diameter fixed by a custom made coil holder. [Single and double “breast coils” used for imaging breasts in humans are commercially available, for example, from GE Medical Systems (Milwaukee, Wis.) and are routinely available in outpatient MRI centers] The mice were wrapped with gauze to stabilize their body temperature and were placed at the center of the coils.
In order to evaluate the lymphatic drainage from the normal mammary gland of either Balb/c mice (n=5) or athymic nu/nu mice (n=5), 3D-fast spoiled gradient echo [3D-fastSPGR (efgre3d package; Signa Horizon, GE); repetition time/echo time 19.2/7.2 msec; inversion time 47 msec; 31.2 kHz, flip angle 30°, 4 excitations; 36 slice encoding steps; scan time 4 min 49 seconds] with chemical shift fat-suppression was used 6, 12, 18, 24, 30, 36, 42, and 48 min after injection of the contrast agent. The coronal images were reconstructed with 0.6-mm section thickness every 0.3-mm. The FOV was 8×4 cm and the size of the matrix was 512×256. The slice data were processed into 3D images using the maximum intensity projection (MIP) method with the same window and level (window 3500 and level 2100) (Advantage Windows, General Electric Medical System). After imaging, the mice were sacrificed by carbon dioxide inhalation.

[2] = test system: draining lymph nodes and lymphatic vessels; test: 3D dynamic mammo-lymphangiograms after sequential injection of GPDM and PAMAM-G6 into the mammary gland; type: in vivo, athymic nu/nu mice; conditions: 0.15 μmol Gd into mammary gland; GPDM imaged at 12, 24, 36 min, then PAMAM-G6 injected 36 minutes following GPDM
Procedure: Mice were anesthetized with 1.15 mg sodium pentobarbital (Dainabot, Osaka, Japan), and then injected with 0.15-0.24 μmol Gd/5-8 μL of the PAMAM-G6 contrast agent into normal mammary glands or mammary tissue surrounding a tumor (peritumorally). Dynamic micro-MR images were obtained using a 1.5-Tesla superconductive magnet unit (Signa LX, General Electric Medical System, Milwaukee, Wis.) with a birdcage type coil of 3 cm diameter fixed by a custom made coil holder. [Single and double “breast coils” used for imaging breasts in humans are commercially available, for example, from GE Medical Systems (Milwaukee, Wis.) and are routinely available in outpatient MRI centers] The mice were wrapped with gauze to stabilize their body temperature and were placed at the center of the coils. Athymic nu/nu mice (n=4) were anesthetized and injected with 0.15 μmol Gd of GPDM into the mammary gland, and images were taken 12, 24, and 36 min after injection. Following these three images, these mice were subsequently injected with 0.15 μmol Gd of PAMAM-G6 contrast agent in the mammary gland, and images were taken at 12 and 24 min post-injection of the PAMAM-G6 contrast agent (at 48 and 60 min post-injection of GPDM).

[3] = test system: lymphatic drainage from tumor-bearing mammary glands; test: Mammo-MR-lymphangiography of tumor-bearing mammary glands, BALB-neuT transgenic breast cancer model; type: in vivo, BALB-neuT transgenic mice; conditions: FIG. 4
Procedure: The breast-tumor bearing mice were thirty one week-old BALB-neuT mice (n=3) transgenic for the rat HER-2/neu (Erb B2) oncogene under the control of the mouse mammary tumor virus promotor (MMTV). […] BALB-neuT mice were used because of their spontaneous development of bilateral breast cancers and lymph node metastases. […] Most metastatic lymph nodes from the mouse mammary pad localize in the neck, lateral thoracic, or axillary region.
Mice were anesthetized with 1.15 mg sodium pentobarbital (Dainabot, Osaka, Japan), and then injected with 0.15-0.24 μmol Gd/5-8 μL of the PAMAM-G6 contrast agent into normal mammary glands or mammary tissue surrounding a tumor (peritumorally). Dynamic micro-MR images were obtained using a 1.5-Tesla superconductive magnet unit (Signa LX, General Electric Medical System, Milwaukee, Wis.) with a birdcage type coil of 3 cm diameter fixed by a custom made coil holder. [Single and double “breast coils” used for imaging breasts in humans are commercially available, for example, from GE Medical Systems (Milwaukee, Wis.) and are routinely available in outpatient MRI centers] The mice were wrapped with gauze to stabilize their body temperature and were placed at the center of the coils. […]

[4] = test system: lymphatic drainage from PT-18 tumor-bearing mammary gland; test: Mammo-MR-lymphangiography of PT-18 tumor xenograft-bearing mammary gland; type: in vivo, athymic nu/nu mice; conditions: FIG. 5
Procedure: Tumor xenografts of PT-18, a murine mast cell line, were introduced into the left mammary pad in athymic nu/nu mice. When 10^7 PT-18 cells were injected in the left mammary pad of 10 athymic nu/nu mice, six mice developed tumor masses in the left axillary lymph nodes within three weeks.
as §1
In order to evaluate lymphatic drainage from six tumor-bearing mammary glands of three BALB-neuT transgenic mice or the PT-18 tumor-bearing mammary gland of athymic nu/nu mice (n=6), 2D fast-inversion recovery [2D-fastIR; repetition time/echo time 8000/96 msec; inversion time 150 msec; 31.2 kHz, 2 excitations; 16 slices; scan time 2 min 16 seconds] was employed to evaluate the tumor localization before injection of PAMAM-G6 contrast agent. The coronal images were reconstructed with 1.5 mm section thickness without a gap. The FOV was 8×4 cm and the size of matrix was 512×256. The slice data were processed into 3D images using the MIP method with the same window and level (window 3500 and level 2100) (Advantage Windows, GE). Then images were obtained with the 3D-fastSPGR sequence as described above.

[5] = Distribution and survival properties of the dendrimer conjugates; conditions: in vivo
[6] = 6 min after injection into normal mammary gland
[7] = 12 min after injection into normal mammary gland
[8] = 18 min after injection into normal mammary gland
[9] = 24 min after injection into normal mammary gland
[10] = 30 min after injection into normal mammary gland
[11] = 36 min after injection into normal mammary gland
[12] = 42 min after injection into normal mammary gland
[13] = 48 min after injection into normal mammary gland

## PAMAM-G6D-(Gd-1B4M)256 dendrimer conjugate
[1]; [6]
  Visualized LNs/Total Examined LNs, Axillary LN: 10/10
  Visualized LNs/Total Examined LNs, Lateral thoracic LN: 0/10
  Visualized LNs/Total Examined LNs, Superficial cervical LN: 1/10
[1]; [7]
  Visualized LNs/Total Examined LNs, Axillary LN: 10/10
  Visualized LNs/Total Examined LNs, Lateral thoracic LN: 1/10
  Visualized LNs/Total Examined LNs, Superficial cervical LN: 1/10
[1]; [8]
  Visualized LNs/Total Examined LNs, Axillary LN: 10/10
  Visualized LNs/Total Examined LNs, Lateral thoracic LN: 2/10
  Visualized LNs/Total Examined LNs, Superficial cervical LN: 1/10
[1]; [9]
  Visualized LNs/Total Examined LNs, Axillary LN: 10/10
  Visualized LNs/Total Examined LNs, Lateral thoracic LN: 4/10
  Visualized LNs/Total Examined LNs, Superficial cervical LN: 2/10
[1]; [10]
  Visualized LNs/Total Examined LNs, Axillary LN: 10/10
  Visualized LNs/Total Examined LNs, Lateral thoracic LN: 4/10
  Visualized LNs/Total Examined LNs, Superficial cervical LN: 2/10
[1]; [11]
  Visualized LNs/Total Examined LNs, Axillary LN: 10/10
  Visualized LNs/Total Examined LNs, Lateral thoracic LN: 5/10
  Visualized LNs/Total Examined LNs, Superficial cervical LN: 3/10
[1]; [12]
  Visualized LNs/Total Examined LNs, Axillary LN: 10/10
  Visualized LNs/Total Examined LNs, Lateral thoracic LN: 6/10
  Visualized LNs/Total Examined LNs, Superficial cervical LN: 3/10
[1]; [13]
  Visualized LNs/Total Examined LNs, Axillary LN: 10/10
  Visualized LNs/Total Examined LNs, Lateral thoracic LN: 6/10
  Visualized LNs/Total Examined LNs, Superficial cervical LN: 3/10
[1]; initial (6 min) time point
  Mice in which the axillary lymph node and its afferent lymphatic vessels were visualized: all 10 mice
[2]
  Visualization of draining lymph nodes and lymphatic vessels (FIG. 3): clearly visualized
[3]
  Imaging of enlarged lymph nodes containing tumor metastases and dilated lymphatic vessels: clearly imaged
[3]; peritumoral injection
  Visualization of flow within the draining lymphatic vessels: readily visualized
[4]
  Enhancement of axillary lymph node tissue with metastatic tumor cells: did not shown enhancement
  Enhancement of the lymphatic vessel flowing into the lymph node with a metastatic tumor: dilated and showed enhancement
[4]; peritumoral injection
  Visualization of flow within the draining lymphatic vessels: readily visualized
[5]
  Survival period in the lymph system: intermediate survival period in the lymph system
